pIC50: −log10 of the molar value.
Biological target: JNK3 kinase (Homo sapiens, UniProt P53779)
Experiment: JNK3 SPA assay (phosphorylation of GST-c-Jun)
Type: biochemical
Settings: 3.33 μM ATP, GST-c-Jun substrate, 30 minutes at room temperature
Procedure: JNK1, JNK2, JNK3—SPA Assay
A typical assay for testing the activity of compounds to inhibit JNK1, JNK2 and JNK3 enzymes is as follows: • 1. Compound is dissolved in DMSO to a convenient concentration and this is diluted in 10% DMSO to a five times concentrate of the desired starting concentration (frequently 1:100). • 2. 10 μl of 500 mM EDTA is added to alternative wells of the Opti-plate row, which will receive kinase reaction plus DMSO. This creates the negative control. • 3. For the JNK2 and JNK3 assay, compounds are prepared in six 2-fold dilutions with water and each concentration is tested in duplicate. For the JNK1 assay compounds are prepared in four 5-fold dilutions with water which are tested in triplicate. Controls are treated identically. • 4. 20 μl per well of each compound concentration is transferred to an Opti-plate, in duplicate. • 5. 30 μl (JNK2/3 SPA) or 50 μl (JNK1 SPA) of substrate solution (25 mM HEPES pH 7.5, 10 mM magnesium acetate with 3.33 μM ATP (JNK2/3) or 2 μM ATP (JNK1), approximately 7.5 kBq [γ-33P] ATP, GST-c-Jun, in water) is added to each well. • 6. 50 μl (JNK2/3 SPA) or 30 μl (JNK1 SPA) of kinase solution (JNK in 25 mM HEPES pH 7.5, 10 mM Mg Acetate) is added to each well.
• 7. […] Plates are sealed and incubated for 30 minutes at room temperature, centrifuged for 10 minutes at 2500 g and counted. • 10. […]

Sequence of JNK3 kinase (P53779 whole entry): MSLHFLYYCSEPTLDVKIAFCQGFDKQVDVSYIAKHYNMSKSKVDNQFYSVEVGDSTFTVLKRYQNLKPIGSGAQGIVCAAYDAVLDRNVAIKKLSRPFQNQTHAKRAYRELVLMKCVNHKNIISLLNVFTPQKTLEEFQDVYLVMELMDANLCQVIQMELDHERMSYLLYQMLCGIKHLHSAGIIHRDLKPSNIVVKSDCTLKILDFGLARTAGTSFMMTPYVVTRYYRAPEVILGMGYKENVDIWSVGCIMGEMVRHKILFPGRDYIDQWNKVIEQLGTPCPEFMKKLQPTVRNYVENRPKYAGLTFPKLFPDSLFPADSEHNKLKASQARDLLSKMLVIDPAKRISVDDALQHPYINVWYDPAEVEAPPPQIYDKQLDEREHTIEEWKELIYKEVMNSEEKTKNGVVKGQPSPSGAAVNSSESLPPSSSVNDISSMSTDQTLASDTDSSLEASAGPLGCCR

| pIC50 | Structure (SMILES) |
| --- | --- |
| > 6.30 | c1csc(-c2cnc3[nH]ccc3c2)c1 [Compound 2] |
| 5.92 | CN(C)c1ccc(-c2cnc3[nH]ccc3c2)cc1 [Compound 1] |

Reference: US7291630B2, “Azaindoles as inhibitors of c-Jun N-terminal kinases” (Eisai Co., Ltd., priority 2002, dated 2007)
